According to patent US10828305B2 (SHANGHAI PHARMACEUTICALS HOLDING CO., LTD., priority 2016, dated 2020):

Tests used:
BT-474 = experiment: Proliferation inhibition assay in vitro, BT-474 (CellTiter-Glo); format: cell-based; settings: Homo sapiens, 72 hours, read-out: IC50(nM) cell BT-474
Description: (§1) Proliferation Inhibition Assay In Vitro of Cell Lines
(§2) 1. Cell culture and inoculation: on the first day of the experiment, normal cultured cells were taken in the exponential growth phase, the cells were dispersed by digesting, then the cell density was adjusted to 8.8×10^4 cells/mL for BT-474 and 6.6×10^4 cells/mL for N87, 90 μl of which were inoculated to each well in a 96-well cell culture plate; after inoculation, the microplate was placed at condition of 37° C., 5% CO2 overnight. 2. Dosing to cells: on the second day of the experiment, the microplate was taken out from incubator, […], of 10× compound was separately added to each well of the microplate, 2 duplicated wells were set for each concentration, 9 dosing concentrations were set for each compound. According to different cell lines, the initial concentration of each compound was different. Upon completion of addition, the microplate was placed at condition of 37° C., 5% CO2 for 72 hours. 3. Data acquisition: the microplate was taken out from the incubator and allowed to stand at room temperature to equilibrate for 30 minutes. 100 μl CellTiter-Glo® Luminescent Cell Viability Assay reaction solution which had been equilibrated at room temperature was added to each well and the microplate was shaken at 1300 rpm for 2 minutes at room temperature. The microplate was centrifuged at 2000 rpm for 1 minute in a HERAEUS Multifuge X1R and then allowed to equilibrate at room temperature for 10 minutes. The […] signal was measured on EnVision™.

ErbB2 kinase = ErbB2 kinase (Homo sapiens, UniProt P04626); experiment: Enzymatic experiment on ErbB2 (HTRF kinEASE-TK); format: biochemical; settings: ATP 4 μM; read-out: Kinase IC50 (nM) in vitro ErbB2
Sequence of ErbB2 kinase (P04626 23-1255): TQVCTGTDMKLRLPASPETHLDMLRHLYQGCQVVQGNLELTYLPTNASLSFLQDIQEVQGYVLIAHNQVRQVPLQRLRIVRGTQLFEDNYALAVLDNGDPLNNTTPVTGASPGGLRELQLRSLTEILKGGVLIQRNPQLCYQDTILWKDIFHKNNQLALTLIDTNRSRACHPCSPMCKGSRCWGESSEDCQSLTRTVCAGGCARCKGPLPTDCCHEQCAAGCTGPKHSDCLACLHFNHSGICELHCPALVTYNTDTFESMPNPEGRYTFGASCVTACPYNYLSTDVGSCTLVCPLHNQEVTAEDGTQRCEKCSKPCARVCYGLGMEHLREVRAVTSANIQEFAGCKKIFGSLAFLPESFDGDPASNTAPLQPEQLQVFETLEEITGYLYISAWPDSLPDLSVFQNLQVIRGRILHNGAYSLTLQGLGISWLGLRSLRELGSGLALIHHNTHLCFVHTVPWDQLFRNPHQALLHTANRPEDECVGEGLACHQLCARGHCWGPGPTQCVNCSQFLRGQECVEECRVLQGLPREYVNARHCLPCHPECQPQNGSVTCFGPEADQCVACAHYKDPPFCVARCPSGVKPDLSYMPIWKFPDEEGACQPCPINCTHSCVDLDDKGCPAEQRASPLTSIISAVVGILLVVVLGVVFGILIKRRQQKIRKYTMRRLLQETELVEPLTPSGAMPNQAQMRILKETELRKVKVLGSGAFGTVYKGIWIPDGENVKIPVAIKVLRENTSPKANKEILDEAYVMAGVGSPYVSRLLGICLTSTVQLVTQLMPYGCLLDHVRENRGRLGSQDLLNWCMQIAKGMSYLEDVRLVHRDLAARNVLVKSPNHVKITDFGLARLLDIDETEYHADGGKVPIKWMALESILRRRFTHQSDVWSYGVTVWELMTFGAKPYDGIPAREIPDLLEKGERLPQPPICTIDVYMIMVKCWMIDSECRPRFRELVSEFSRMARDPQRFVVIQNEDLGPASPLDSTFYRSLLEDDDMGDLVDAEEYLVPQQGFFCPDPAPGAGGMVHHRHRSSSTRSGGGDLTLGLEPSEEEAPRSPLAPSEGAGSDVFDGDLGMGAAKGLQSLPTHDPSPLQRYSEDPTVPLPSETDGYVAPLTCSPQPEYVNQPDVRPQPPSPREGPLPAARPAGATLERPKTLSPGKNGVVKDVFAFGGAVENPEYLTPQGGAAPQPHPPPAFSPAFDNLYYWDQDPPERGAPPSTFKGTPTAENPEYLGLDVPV
Summary of the method: (§3)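 HTRF kinEASE-TK with biotinylated TK substrate in HEPES pH 7.0 buffer containing MnCl2, MgCl2 and DTT; ErbB2 at 0.06 ng/μl with 4 μM ATP, EGFR at 0.06 units/μl with 1.65 μM ATP, 30 min at room temperature after 5 min enzyme/substrate–compound preincubation. Ten-point 3-fold dilutions; Eu antibody/SA-XL665 detection, 665/620 ratio.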

EGFR kinase = EGFR kinase (Homo sapiens, UniProt P00533); experiment: Enzymatic experiment on EGFR (HTRF kinEASE-TK); format: biochemical; settings: ATP 1.65 μM; read-out: Kinase IC50 (nM) in vitro EGFR
Sequence of EGFR kinase (P00533 25-1210): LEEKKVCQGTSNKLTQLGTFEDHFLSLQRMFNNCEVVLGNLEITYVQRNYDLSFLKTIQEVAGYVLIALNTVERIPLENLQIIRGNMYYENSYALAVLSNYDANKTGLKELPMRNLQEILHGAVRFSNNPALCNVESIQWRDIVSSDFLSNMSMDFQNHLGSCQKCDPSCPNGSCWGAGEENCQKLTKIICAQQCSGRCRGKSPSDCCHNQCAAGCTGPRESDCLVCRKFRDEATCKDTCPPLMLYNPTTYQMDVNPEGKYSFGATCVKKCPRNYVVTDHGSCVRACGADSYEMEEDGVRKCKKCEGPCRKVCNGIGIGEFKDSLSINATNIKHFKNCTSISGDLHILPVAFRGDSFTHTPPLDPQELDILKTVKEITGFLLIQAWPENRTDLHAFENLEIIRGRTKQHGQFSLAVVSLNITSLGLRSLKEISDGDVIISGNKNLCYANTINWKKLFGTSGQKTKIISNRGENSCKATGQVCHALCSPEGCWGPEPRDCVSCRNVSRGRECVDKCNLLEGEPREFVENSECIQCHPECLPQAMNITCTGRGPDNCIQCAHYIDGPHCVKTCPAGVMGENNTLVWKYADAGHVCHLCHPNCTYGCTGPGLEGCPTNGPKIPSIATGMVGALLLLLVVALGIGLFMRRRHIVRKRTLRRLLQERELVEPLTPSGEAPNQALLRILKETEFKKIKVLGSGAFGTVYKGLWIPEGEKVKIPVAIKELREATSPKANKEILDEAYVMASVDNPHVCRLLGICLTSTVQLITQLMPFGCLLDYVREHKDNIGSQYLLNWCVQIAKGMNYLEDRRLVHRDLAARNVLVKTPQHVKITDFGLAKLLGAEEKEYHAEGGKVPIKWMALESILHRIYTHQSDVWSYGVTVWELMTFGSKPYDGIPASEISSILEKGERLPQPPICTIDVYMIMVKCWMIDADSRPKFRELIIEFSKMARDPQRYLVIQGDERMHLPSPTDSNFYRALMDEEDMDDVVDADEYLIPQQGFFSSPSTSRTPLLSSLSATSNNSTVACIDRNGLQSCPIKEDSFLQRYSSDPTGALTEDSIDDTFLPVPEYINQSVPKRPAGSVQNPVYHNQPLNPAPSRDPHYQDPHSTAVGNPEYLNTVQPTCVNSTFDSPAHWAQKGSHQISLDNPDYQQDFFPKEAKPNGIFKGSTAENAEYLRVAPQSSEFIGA
Summary of the method: as §3

N87 = experiment: Proliferation inhibition assay in vitro, N87 (CellTiter-Glo); format: cell-based; settings: Homo sapiens; 72 hours; read-out: IC50(nM) cell N87
Description: as §1, §2

Row | Structure (SMILES) | IC50 (BT-474) [nM] | IC50 (ErbB2 kinase) [nM] | IC50 (EGFR kinase) [nM] | IC50 (N87) [nM]
1 | Cc1cc(NC(=O)Nc2ccc3ncnc(Nc4ccc(Oc5cc6nncn6cn5)c(C)c4)c3c2)n[nH]1 [Embodiment 70, 1-(4-((4-([1,2,4]triazolo[4,3-c]pyrimidin-7-yloxy)-3-methylphenyl)amino)quinazolin-6-yl)-3-(5-methyl-1H-pyrazol-3-yl)urea] | 172 | 3.3 | 73.4 | 852
2 | Cc1cc(Nc2ncnc3ccc(NC4=NC(C)(C)CO4)cc23)cc(C)c1Oc1cc2nncn2cn1 [Embodiment 126, N^4-(4-([1,2,4]triazolo[4,3-c]pyrimidin-7-yloxy)-3,5-dimethylphenyl)-N^6-(4,4-dimethyl-4,5-dihydrooxazol-2-yl)quinazolin-4,6-diamine] | 143 | 6.7 | 53 | 82.9
3 | CCOC(=O)Nc1cccc(-c2ccc3ncnc(Nc4ccc(Oc5cc6nncn6cn5)c(C)c4)c3c2)c1 [Embodiment 38, ethyl (3-(4-((4-([1,2,4]triazolo[4,3-c]pyrimidin-7-yloxy)-3-methylphenyl)amino)quinazoline-6-yl)phenyl)carbamate] | 186 | 5 | 28.1 | 86.6
4 | Cc1cc(Nc2ncnc3ccc(-c4ccc(N)nn4)cc23)ccc1Oc1cc2nncn2cn1 [Embodiment 118, N-(4-([1,2,4]triazolo[4,3-c]pyrimidin-7-yloxy)-3-methylphenyl)-6-(6-aminopyridazin-3-yl)quinazolin-4-amine] | 73.4 | 8.59 | 28.4 | 389
5 | Cc1cc(Nc2ncnc3ccc(NC4=NC5(CCC5)CO4)cc23)ccc1Oc1cc2nncn2cn1 [Embodiment 44, N^4-(4-([1,2,4]triazolo[4,3-c]pyrimidin-7-yloxy)-3-methylphenyl)-N^6-(7-oxa-5-azaspiro[3.4]oct-5-en-6-yl)quinazoline-4,6-diamine] | 41 | 1.43 | 11.6 | 46
6 | Cc1cc(Nc2ncnc3ccc(NC4=NCC5(CCOCC5)O4)cc23)ccc1Oc1cc2nncn2cn1 [Embodiment 46, N^4-(4-([1,2,4]triazolo[4,3-c]pyrimidin-7-yloxy)-3-methylphenyl)-N^6-(1,8-dioxa-3-azaspiro[4.5]dec-2-en-2-yl)quinazoline-4,6-diamine] | 172 | 12 | 51.6 | 316
7 | Cc1cc(Nc2ncnc3ccc(-c4cccc(F)c4)cc23)ccc1Oc1cc2nncn2cn1 [Embodiment 77, N-(4-([1,2,4]triazolo[4,3-c]pyrimidin-7-yloxy)-3-methylphenyl)-6-(3-fluorophenyl)-4-aminoquinazoline] | 254 | 5.03 | 23.6 | 509
8 | Cc1cc(Nc2ncnc3ccc(NC4=NC5(CO4)CC(O)C5)cc23)ccc1Oc1cc2nncn2cn1 (stereo not shown) [Embodiment 27, 6-((4-((4-([1,2,4]triazolo[4,3-c]pyrimidin-7-yloxy)-3-methylphenyl)amino)quinazolin-6-yl)amino)-7-oxa-5-azaspiro[3,4]oct-5-en-2-ol] | 112 | 1.92 | 8.1 | 543
9 | Cc1cc(Nc2ncnc3ccc(Br)cc23)ccc1Oc1cc2nncn2cn1 [Embodiment 5, N-(4-([1,2,4]triazolo[4,3-c]pyrimidin-7-yloxy)-3-methylphenyl)-6-bromoquinazolin-4-amine] | 460 | 12.9 | 703 | 313
10 | Cc1cc(Nc2ncnc3ccc(NC(=S)NC(C)(CO)CO)cc23)ccc1Oc1cc2nncn2cn1 [Embodiment 12, 1-(4-((4-([1,2,4]triazolo[4,3-c]pyrimidin-7-yloxy)-3-methylphenyl)amino)quinazoline-6-yl)-3-(1,3-dihydroxy-2-methylpropan-2-yl)thiourea] | 136 | 4.3 | 231 | 482
11 | Cc1cc(Nc2ncnc3ccc(-n4cccc4)cc23)ccc1Oc1cc2nncn2cn1 [Embodiment 83, N-(4-([1,2,4]triazolo[4,3-c]pyrimidin-7-yloxy)-3-methylphenyl)-6-(1H-pyrrol-1-yl)-quinazolin-4-amine] | 72.7 | 2.3 | 36.4 | 104
12 | COc1cc2ncnc(Nc3ccc(Oc4cc5nncn5cn4)c(C)c3)c2cc1OC1CCN(C(=O)/C=C/CN(C)C)CC1 [Embodiment 23] | 79.5 | 5.2 | 0.7 | 55.7

Further lines, with some results ahead:

Row | IC50 (BT-474) [nM] | IC50 (ErbB2 kinase) [nM] | IC50 (EGFR kinase) [nM] | Structure (SMILES) | IC50 (N87) [nM]
13 | 6.9 | 4.3 | 1.3 | C=CC(=O)N1CCC(Oc2cc3c(Nc4ccc(Oc5cc6nncn6cn5)c(C)c4)ncnc3cc2OC)CC1 [Embodiment 41, 1-(4-((4-((4-([1,2,4]triazolo[4,3-c]pyrimidin-7-yloxy)-3-methylphenyl)amino)-7-methoxyquinazolin-6-yl)oxy)piperidin-1-yl)pro-2-en-1-one] | 11.7
14 | 35.4 | 34 | 2450 | C=CC(=O)Nc1ccc(-c2ccc3ncnc(Nc4ccc(Oc5cc6nncn6cn5)c(C)c4)c3c2)c(C)n1 [Embodiment 56, N-(5-(4-((4-([1,2,4]triazolo[4,3-c]pyrimidin-7-yloxy)-3-methylphenyl)amino)quinazolin-6-yl)-6-methylpyridin-2-yl)acrylamide] | 466
15 | 5.6 | 1.7 | 2.7 | Cc1cc(Nc2ncnc3ccc(NC(=O)/C=C/CN(C)C)cc23)ccc1Oc1cc2nncn2cn1 [Embodiment 57, (E)-N-(4-((4-([1,2,4]triazolo[4,3-c]pyrimidin-7-yloxy)-3-methylphenyl)amino)quinazolin-6-yl)-4-(dimethylamino)-2-butenamide] | 12.8
16 | 40.7 | 4.1 | 18 | Cc1cc(Nc2ncnc3ccc(-c4ccc(CN5CCN(S(C)(=O)=O)CC5)o4)cc23)ccc1Oc1cc2nncn2cn1 [Embodiment 22, N-(4-([1,2,4]triazolo[4,3-c]pyrimidin-7-yloxy)-3-methylphenyl)-6-(5-((4-(methanesulfonyl)piperazin-1-yl)methyl)furan-2-yl)quinazolin-4-amine] | 35.6
17 | 33.4 | 7.4 | 35.9 | Cc1cc(Nc2ncnc3ccc(NC4=NC(C)(C)CS4)cc23)ccc1Oc1cc2nncn2cn1 [Embodiment 9, N^4-(4-([1,2,4]triazolo[4,3-c]pyrimidin-7-yloxy)-3-methylphenyl)-N^6-(4,4-dimethyl-4,5-dihydrothiazol-2-yl)quinazoline-4,6-diamine] | 39.5
18 | 33.8 | 3.1 | 7.7 | Cc1cc(Nc2ncnc3ccc(-n4ccc(CNCCS(C)(=O)=O)c4)cc23)ccc1Oc1cc2nncn2cn1 [Embodiment 86, N-(4-([1,2,4]triazolo[4,3-c]pyrimidin-7-yloxy)-3-methylphenyl)-6-(3-(((2-(methylsulfonyl)ethyl)amino)methyl)-1H-pyrrol-1-yl)quinazolin-4-amine] | 160
19 | 30 | 0.9 | 4.3 | Cc1cc(Nc2ncnc3ccc(NC4=NC5(CC5)CO4)cc23)ccc1Oc1cc2nncn2cn1 [Embodiment 72, N′-(4-([1,2,4]triazolo[4,3-c]pyrimidin-7-yloxy)-3-methylphenyl)-N^6-(6-oxa-4-azaspiro[2.4]hept-4-en-5-yl)quinazolin-4,6-diamine] | 34.2
20 | 9.5 | 2.8 | 2.3 | C=CC(=O)Nc1ccc2ncnc(Nc3ccc(Oc4cc5nncn5cn4)c(C)c3)c2c1 [Embodiment 124, N-(4-((4-([1,2,4]triazolo[4,3-c]pyrimidin-7-yloxy)-3-methylphenyl)amino)quinazolin-6-yl) acrylamide] | 11.4
21 | 19.8 | 1 | 3.8 | Cc1cc(Nc2ncnc3ccc(-c4ccc(CNCCS(N)(=O)=O)o4)cc23)ccc1Oc1cc2nncn2cn1 [Embodiment 65] | 63.2
22 | 6.3 | 1.13 | 1.9 | C=CC(=O)N1CCC(Oc2cc3c(Nc4ccc(Oc5cc6nncn6cn5)c(F)c4)ncnc3cc2OC)CC1 [Embodiment 88, 1-(4-((4-((4-([1,2,4]triazolo[4,3-c]pyrimidin-7-yloxy)-3-fluorophenyl)amino)-7-methoxyquinazolin-6-yl)oxy)piperidin-1-yl)prop-2-en-1-one] | 5.2
